The results in this text go back to patent US11230526B1, “Cylcoalkenyl derivatives useful as agonists of the GPR120 and/or GPR40 receptors” (Janssen Pharmaceutica NV, priority 2018, dated 2022).

The EC50 is the midpoint of the concentration-response curve.

Holding throughout (type): cell-based
For test [1], the target named is T1, Human GPR120 short form (Homo sapiens, UniProt Q5NUL3).
T1 construct: expressed in transfected cells
T1 sequence (Q5NUL3 1-361): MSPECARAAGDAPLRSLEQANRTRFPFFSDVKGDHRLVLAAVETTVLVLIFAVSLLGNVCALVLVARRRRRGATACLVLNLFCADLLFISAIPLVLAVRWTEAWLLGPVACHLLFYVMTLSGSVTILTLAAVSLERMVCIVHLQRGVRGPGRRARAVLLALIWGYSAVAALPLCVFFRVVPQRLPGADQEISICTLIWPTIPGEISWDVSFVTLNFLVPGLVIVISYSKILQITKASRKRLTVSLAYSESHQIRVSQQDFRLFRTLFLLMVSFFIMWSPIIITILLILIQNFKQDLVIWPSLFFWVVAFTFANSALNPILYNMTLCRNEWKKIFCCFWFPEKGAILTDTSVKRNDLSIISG
Description: Human GPR120 calcium flux assay, Procedure Calcium A (2500 cells/well). In a few lines: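 HEK293 cells stably expressing human GPR120 short isoform (NM_001195755.1), 2500 cells/well, serum-starved 1 h at 37 °C and loaded with Fluo-4 NW plus probenecid. FLIPR fluorescence read for 300 s after compound addition; response = Fmax−Fmin. EC50 from four-parameter concentration–response fit.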
In general terms: Calcium assays in cells follow changes in intracellular calcium, usually with a dye or a luminescent sensor.

In test [2] the target is T2, short form of the GPR120 receptor (Homo sapiens, UniProt Q5NUL3).
T2 construct: host or cells: PathHunter CHO-K1 GPR120S β-Arrestin Cell Line
Description: Human GPR120 DiscoveRx PathHunter Beta-Arrestin assay, Procedure β-arrestin B. The text has this: Human GPR120 DiscoveRx PathHunter® Beta-Arrestin Assay Assay Principle:
The binding of an agonist (medium/long chain fatty acids or small molecule agonists) to the G-protein-coupled receptor GPR120 activates phospholipase C, leading to release of intracellular Ca^+2 through the generation of inositol 1,4,5-trisphosphate (InsP3 or IP3). GPR120 activation can also trigger intracellular signaling via recruitment of Beta-Arrestin. In the present method, agonist-induced activation of the human GPR120 receptor is monitored through the use of PathHunter® CHO-K1 GPR120 Beta-Arrestin Cell Line engineered by DiscoveRx, as detailed below. The cell lines are designed to co-express both the ProLink/Enzyme Donor (PK)-tagged GPCR and the Enzyme […] (EA)-tagged Beta-Arrestin fusion proteins. Upon GPR120 receptor stimulation/activation, the EA-tagged Beta-Arrestin portion is translocated to the tagged receptor, where the two enzyme fragments are brought within close proximity. Under these conditions, these fragments can interact and form an active Beta-gal enzyme complex through Enzyme Fragment Complementation (EFC). This active Beta-gal complex can enzymatically hydrolyse the substrate to produce a detectable light signal; therefore, activation as a function of agonist concentration can be expressed as an EC50 value to determine relative compound activities. This in vitro assay therefore serves to assess compound agonist activity of the GPR120.
In Procedure β-arrestin B the cells used were PathHunter® CHO-K1 GPR120S β-Arrestin Cell Line, expressing the short form of the GPR120 receptor (Accession #[…]), with 5000 cells/well.
The selected CHO-K1 GPR120 β-Arrestin cells were cultured in Ham's F12 media supplemented with 10% fetal bovine serum (FBS), 1% Glutamine, 1×p/s, 800 μg/mL G418 and 300 μg/mL Hygromycin B (for selection). Cell stocks were maintained and grown in a sub-confluent state using standard cell culture procedures. The day before the experiment, the cells were harvested with non-enzymatic cell dissociation buffer and re-suspended in complete growth media at the desired concentration. A Corning 384-plate was then seeded with the proper number of cells in a volume of 25 μL, per well. The seeded plates were incubated overnight at 37° C.
On the day of the experiment, the Assay Buffer containing (a) HBSS with Ca^++ and Mg^++, (b) 20 mM HEPES, and (c) 0.1% BSA stabilizer (pH 7.4) was prepared. The growth medium was gently removed from the cell plates and 20 μL of Assay Buffer added to each well. The plate was then incubated at 37° C. for 60 min. Test compounds were serially diluted in Assay Buffer to desired concentrations (more particularly to one or more of the following μM concentrations: 25, 12.5, 6.25, 3.12, 1.56, 0.78, 0.39, 0.19, 0.10, 0.05, 0.02, 0.01). Five μL of compound dilution was then added to each well and the plate incubated at 37° C. for 90 min. The detection reagents were prepared according to the manufacture's instruction. Twelve μL of the detection reagents were added to each well and the plate incubated at room temperature for 60 min.
The plates were read on an EnVision instrument, using Protocol name: Luminescence, Plate type: 384 Costar, Measurement height: 3 mm, Measurement time: 1 s, Aperture: 384 Plate aperture. The % Activity relative to the positive control was calculated using the following equation:
The % Activity values were plotted versus the concentration of test compound and fitted to a sigmoidal dose-response curve with a Hill slope=1 (fixed value) using nonlinear regression with GraphPad Prism 5.0 to calculate the EC50 values. The Fitting Equation was: Y=Bottom+(Top-Bottom)/(1+10^((Log EC50−X)*HillSlope)), where X is the log of the concentration and Y is the response.

The target in test [3] is T1, Human GPR120 short form. Description: Human GPR120 calcium flux assay, Procedure Calcium B (4200 cells/well). In outline:
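HEK293 cells stably expressing human GPR120 (NM_001195755.1), 4200 cells/well, starved 1 h and loaded with Fluo-4 NW plus probenecid. Ligand-evoked calcium flux read on FLIPR for 300 s after a 10 s baseline. RFU = Fmax−Fmin; EC50 from four-parameter concentration-response fit.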

Test [4] concerns the target T3, human GPR40 (Homo sapiens, UniProt O14842).
T3 construct: expressed in transfected cells
Description: GPR40 calcium flux assay, human GPR40. The note with it: HEK293 cells stably expressing GPR40; table does not say human or rat. In a few lines: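 Cells preincubated 1 h at 37° C. in HBSS, 20 mM HEPES, 0.1% BSA, then Fluo 8 calcium dye 30 min at 37° C. and 15 min at room temperature.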

The target of test [5] is T4, long form of human GPR120 (Homo sapiens, UniProt Q5NUL3).
T4 construct: host or cells: PathHunter CHO-K1 GPR120 β-Arrestin Cell Line
Description: Human GPR120 DiscoveRx PathHunter Beta-Arrestin assay, Procedure β-arrestin A. In a few lines:
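PathHunter CHO-K1 cells expressing long-form human GPR120 (3000/well) were seeded overnight. They were then preincubated 60 min in HBSS with 20 mM HEPES and 0.1% BSA, pH 7.4, and exposed to compound for 90 min at 37 °C. β-Arrestin recruitment was read as β-gal complementation luminescence. EC50 came from % activity versus positive control, Hill slope fixed at 1.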

T4 sequence (Q5NUL3 1-377 isoform Q5NUL3-1): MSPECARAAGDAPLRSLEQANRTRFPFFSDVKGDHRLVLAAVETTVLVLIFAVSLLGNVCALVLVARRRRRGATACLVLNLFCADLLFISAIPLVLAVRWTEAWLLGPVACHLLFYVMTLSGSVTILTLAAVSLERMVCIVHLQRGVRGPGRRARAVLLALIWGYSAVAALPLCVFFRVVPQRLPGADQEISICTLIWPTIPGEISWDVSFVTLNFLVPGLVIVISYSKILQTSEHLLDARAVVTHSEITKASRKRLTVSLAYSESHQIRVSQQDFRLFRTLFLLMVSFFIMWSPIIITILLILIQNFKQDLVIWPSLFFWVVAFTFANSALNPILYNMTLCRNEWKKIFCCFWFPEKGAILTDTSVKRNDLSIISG
T4 sequence (P32121 whole entry partner): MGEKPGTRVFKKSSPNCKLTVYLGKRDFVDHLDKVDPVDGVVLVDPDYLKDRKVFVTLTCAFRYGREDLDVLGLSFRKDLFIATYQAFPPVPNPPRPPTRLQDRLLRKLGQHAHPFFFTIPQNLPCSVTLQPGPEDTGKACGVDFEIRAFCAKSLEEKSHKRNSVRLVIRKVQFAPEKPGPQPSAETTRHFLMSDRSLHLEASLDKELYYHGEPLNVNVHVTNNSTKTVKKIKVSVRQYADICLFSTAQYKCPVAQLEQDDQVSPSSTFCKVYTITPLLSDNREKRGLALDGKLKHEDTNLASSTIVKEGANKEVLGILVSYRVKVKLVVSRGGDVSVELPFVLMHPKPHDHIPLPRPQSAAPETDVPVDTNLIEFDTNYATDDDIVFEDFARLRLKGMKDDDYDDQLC
T2 sequence (P32121 whole entry partner, one chain of several): as the sequence (P32121 whole entry partner) above
T3 sequence (O14842 whole entry): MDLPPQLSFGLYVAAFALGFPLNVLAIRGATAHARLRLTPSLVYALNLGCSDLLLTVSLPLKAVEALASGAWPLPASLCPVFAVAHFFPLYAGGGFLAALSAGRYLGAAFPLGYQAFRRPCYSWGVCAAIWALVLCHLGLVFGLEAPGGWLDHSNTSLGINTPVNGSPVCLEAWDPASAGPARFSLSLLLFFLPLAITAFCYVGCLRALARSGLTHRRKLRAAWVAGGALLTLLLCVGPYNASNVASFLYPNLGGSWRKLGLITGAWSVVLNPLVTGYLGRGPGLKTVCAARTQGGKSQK

Consider `Cc1ccc(C2=C(COc3ccc(CCC(=O)O)c(C)c3C)CCCC2)cc1` [Compound 462, 3-[2,3-dimethyl-4-[[2-(p-tolyl)cyclohexen-1-yl]methoxy]phenyl]Propanoic Acid], for which the EC50 in test [1] is 462 nM; in test [2], 478 nM; in test [3], 66 nM.
In the same order, the values of `Cc1c(CCC(=O)O)ccc(OCC2=C(c3ccc(Br)cc3)CCC2)c1C` [Compound 56, 3-[4-[[2-(4-bromophenyl)cyclopenten-1-yl]methoxy]-2,3-dimethyl-phenyl]Propanoic Acid] are 324 nM, 85 nM and 37 nM.
For `Cc1c(CCC(=O)O)ccc(OCC2=C(c3ccc(F)cc3)CCCC2)c1C` [Compound 480, 3-[4-[[2-(4-fluorophenyl)cyclohexen-1-yl]methoxy]-2,3-dimethyl-phenyl]Propanoic Acid], the values for the EC50 in test [1], in test [2] and in test [3] were 234 nM, 385 nM and 79 nM, respectively.
In the same order, the values of `Cc1c(CCC(=O)O)ccc(OCC2=C(c3ccc(C(F)(F)F)cc3)CCC2)c1C` [Compound 75, 3-[2,3-dimethyl-4-[[2-[4-(trifluoromethyl)phenyl]cyclopenten-1-yl]methoxy]phenyl]Propanoic Acid] are 591 nM, 171 nM and 195 nM.
For `Cc1c(CCC(=O)O)ccc(OCC2=C(c3cccs3)CCCC2)c1C` [Compound 482, 3-[2,3-dimethyl-4-[[2-(2-thienyl)cyclohexen-1-yl]methoxy]phenyl]Propanoic Acid] the same measures were 406 nM, 126 nM and 91 nM.
For `Cc1c(CCC(=O)O)ccc(OCC2=C(c3ccc(C(C)C)cc3)CCC2)c1C` [Compound 55, 3-[4-[[2-(4-isopropylphenyl)cyclopenten-1-yl]methoxy]-2,3-dimethyl-phenyl]Propanoic Acid] the same measures were 793 nM, 246 nM and 282 nM.
Turning to `O=C(O)CCc1ccc(OCC2=C(c3ccc(Cl)cc3)CCC2)c(I)c1` [Compound 130, 3-[3-iodo-4-[[2-(4-chlorophenyl)cyclopenten-1-yl]methoxy]phenyl]Propanoic Acid], the EC50 in test [4] was greater than 5000 nM; in test [5], 87 nM; in test [2] it was 41 nM; in test [3], 34 nM.
In the same order, the values of `Cc1c(CCC(=O)O)ccc(OCC2=C(c3ccc(F)c(F)c3)CCC2)c1C` [Compound 117] are greater than 5000 nM, 256 nM, 190 nM and 110 nM.
As for `O=C(O)CCc1cc(F)c(OCC2=C(c3ccc(Cl)cc3)CCC2C(F)(F)F)c(F)c1` (centres unmarked) [Compound 33, 3-[4-[[2-(4-chlorophenyl)-5-(trifluoromethyl)cyclopenten-1-yl]methoxy]-3,5-difluoro-phenyl]Propanoic Acid], the EC50 in test [4] is greater than 5000 nM; in test [5] it was 312 nM; in test [2], 180 nM; in test [3] it was 288 nM.
For `[2H]C(C(=O)O)C([2H])c1ccc(OCC2=C(c3ccc(Cl)cc3)CCC2)c(C)c1` (centres unmarked) [Compound 126-D, 3-(4-((2-(4-chlorophenyl)cyclopent-1-en-1-yl)methoxy)-3-methylphenyl)Propanoic-2,3-d2 Acid] the same measures were greater than 5000 nM, 35 nM, 45 nM and 10 nM.
For `O=C(O)CCc1ccc(OCC2=C(c3ccc(Cl)cc3)CCC2C(F)(F)F)c(F)c1F` (centres unmarked) [Compound 32, 3-[4-[[2-(4-chlorophenyl)-5-(trifluoromethyl)cyclopenten-1-yl]methoxy]-2,3-difluoro-phenyl]Propanoic Acid] the same measures were greater than 5000 nM, 341 nM, 203 nM and 311 nM.
